The record followed here is PubChem BioAssay (NCI).

Assay in all cases: NCI-60 cell line screen, 48 h
Assay [1] has as its system TK-10 renal.
For assay [2], the system named is SR leukemia.
In assay [3] the test system is MDA-MB-435.
In assay [4] the test system is HS 578T breast.
The test system of assay [5] is UACC-257 melanoma.
For assay [6], the system named is SF-295 CNS.
The test system of assay [7] is K-562 leukemia.
The test system of assay [8] is CCRF-CEM leukemia.
For assay [9], the system named is SNB-75 CNS.
In assay [10] the test system is IGROV1 ovarian.
Assay [11] relates to SK-MEL-2 melanoma.
The test system of assay [12] is EKVX NSCLC.
Assay [13] relates to DLD-1 colon.
Assay [14] deals with OVCAR-4 ovarian.
Assay [15] concerns LXFL 529 NSCLC.
For assay [16], the system named is SN12K1 renal.
Assay [17] relates to RPMI-8226 leukemia.
Assay [18] has as its system CAKI-1 renal.

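Where inhibition never reached the appropriate level, the endpoint shown equals the highest concentration tested. Otherwise, values were interpolated linearly from a five-concentration, 48-hour dose response in 96-well plates. GI50: concentration for 50% inhibition of growth. The concentration for full growth arrest is given as TGI.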

In the case of `CCOC(=O)C1(CO)CSCCSC1`, the TGI in assay [1], in [2], in assay [3], in assay [4], in assay [5] and in assay [6] was greater than 100 µM each time. The TGI in assay [7], in assay [8] and in [9] was greater than 100 µM in each case.

Take `CC(C)=CCc1c(O)cc(O)c2c1OC(c1ccc(O)cc1)C(O)C2=O` (stereo not given): the TGI is 88.9 µM in assay [10]; 60.6 µM in assay [1]; 50.9 µM in assay [11]; 56.3 µM in [12]; greater than 100 µM in assay [13]; greater than 100 µM in assay [14]. For the same compound, the TGI was greater than 100 µM in [5]; 67 µM in assay [6]; greater than 100 µM in assay [7]; 86.9 µM in assay [15]; 99 µM in assay [9].

Turning to `CC(=O)OC1C=C(C=O)C(O)(C=O)C2(C)CCCC(C)(C)C12` (stereo not given), the TGI in [10] was determined as 6.05 µM; in assay [11], 6.81 µM; in [12], 6.13 µM; in [16], 3.85 µM; in [13] it was 3.77 µM; in assay [17], 1.5 µM. Also, the TGI in assay [14] stood at 4.01 µM; in assay [5] it was 5.68 µM; in assay [6] it was 6.31 µM; in assay [18] it was 3.15 µM; in assay [7], 1.73 µM; in assay [8], 0.706 µM. The TGI in assay [9] worked out at 5.82 µM.

On to `CCC1CN2CCc3cc(OC)c(OC)cc3C2CC1CC1c2cc(OC)c(OC)cc2CCN1C(=O)C(N)Cc1ccccc1` (stereo not given), for which the TGI in assay [1] came out at 8.53 µM; in assay [2], 11.4 µM; in [11], 6.1 µM; in assay [12], 4.37 µM; in assay [13], 14.1 µM; in assay [17], 6.07 µM. Moreover, the TGI in assay [5] stood at 11.6 µM; in assay [6], 10.3 µM; in assay [18] it was 11.2 µM; in assay [7], 1.93 µM; in assay [15], 11.6 µM; in [8] it was 10.2 µM. This compound gave a TGI in assay [9] of 10.6 µM.

Take `CCOC(=O)/C=C/CC(C)(C)COC(C)=O`: the TGI in [1], in [2], in assay [11], in [3], in assay [17] and in [4] was greater than 10 µM each time. Also, the TGI in assay [14], in [5], in assay [6], in assay [7], in assay [8] and in [9] was greater than 10 µM throughout.

For the compound `NC(=O)NC1NC(=O)NC1=O` (stereo not given), the TGI in [10], in [1], in assay [2], in assay [11], in assay [12] and in assay [3] was greater than 100 µM each time. For the same compound, the TGI in assay [17], in assay [4], in assay [14], in assay [5], in [6] and in assay [18] was greater than 100 µM in each case. In addition, the TGI in [7], in assay [8] and in assay [9] was greater than 100 µM each time.

As to `Cc1[nH]c(=O)[nH]c(=O)c1/C=C/C(=O)NC(CO)CC(C)C` (stereo not given), the TGI in assay [10], in assay [11], in assay [12], in assay [16], in assay [13] and in [17] was greater than 375 µM each time. Moreover, the TGI in [14] was greater than 375 µM; in [5] it was greater than 375 µM; in assay [6], greater than 375 µM; in assay [18], 310 µM; in [7] it was greater than 237 µM; in assay [8], greater than 375 µM. For the same compound, the TGI in [9] was greater than 375 µM.

On to `CCN(CC)C(=O)c1cc(OC(C)C)ccc1-c1c(C)cc(OC(C)C)c(OC)c1OC`, for which the TGI in assay [10], in assay [1], in [2], in [11], in assay [12] and in assay [13] was greater than 100 µM throughout. Moreover, the TGI in assay [17], in assay [14], in [18], in assay [7] and in [8] was greater than 100 µM each time.

On to `N=C1C(=N)c2ccccc2-c2ccccc21.[Cl-].[Ru+2].c1cnc2c(c1)ccc1cccnc12.c1cnc2c(c1)ccc1cccnc12`, for which the TGI was 72.6 µM in assay [10]; greater than 100 µM in assay [1]; greater than 100 µM in assay [2]; 91.4 µM in assay [11]; 93.5 µM in assay [12]; 77.7 µM in assay [14]. Further, the TGI was 46.6 µM in assay [5]; greater than 100 µM in assay [6]; 78.9 µM in assay [7]; 55.7 µM in assay [15]; 74.7 µM in assay [8]; greater than 100 µM in [9]. Besides, in assay [15], the GI50 is 18.9 µM.

For the compound `CCC(C)C(=O)OC1C(=O)OC2CC3C(C)=CC(=O)C(O)C3(C)C3C4(O)OCC23C1C(C)C4O` (stereo not given), the TGI stood at 0.175 µM in assay [10]; 0.845 µM in assay [1]; 0.184 µM in assay [11]; 0.0723 µM in assay [3]; 0.784 µM in assay [17]; 0.275 µM in assay [4]. The TGI was determined as 0.262 µM in assay [14]; 1.34 µM in assay [5]; 0.126 µM in assay [6]; 7.44 µM in assay [18]; 0.0393 µM in [8]; 0.113 µM in assay [9].

As to `NCC(Cl)C(O)c1cnc(N)[nH]1` (stereo not given), the TGI in assay [10] is 4.34 µM; in assay [11], 18.3 µM; in [12], 8.53 µM; in [16] it was 12.4 µM; in assay [13], 29.2 µM; in [17], 2.15 µM. The TGI was 10.2 µM in assay [14]; 32 µM in assay [5]; 52.6 µM in [6]; 4.35 µM in [18]; greater than 100 µM in assay [7]; greater than 83.6 µM in [8]. Besides, in assay [9], the TGI was 38.8 µM.

As to `C=C(C)C1CC=C(C)C(=O)C1` (stereo not given), the TGI in assay [10], in [1], in [2], in assay [11], in assay [12] and in [3] was greater than 100 µM in each case. Besides, the TGI in assay [17], in assay [4], in assay [14], in assay [5], in assay [6] and in [18] was greater than 100 µM each time. The TGI in assay [7], in [8] and in assay [9] was greater than 100 µM in each case.
